{"source": "patent US9499509B2", "about": "“Dihydrochalcone derivatives and their use as antibiotic agents” (UNIVERSITÉ DU QUÉBEC À CHICOUTIMI, priority 2012, dated 2016)", "key": {"[1]": {"system": "methicillin-resistant Staphylococcus aureus (MRSA) strains", "experiment": "Antibiotic assay (resazurin, Example 1), MRSA strains", "type": "cell-based", "conditions": "for IC50: read-out: IC50", "text": "(§1) Bacteria Strain. […] The MRSA were obtained as further described below.\n(§2) Antibiotic agents. Cyprofloxacin and erythromycin were provided by Sigma-Aldrich. Gentamicin sulfate and vancomycin hydrochloride were provided by Calbiochem.\nIsolation and identification of methicillin-resistant Staphylococcus aureus (MRSA) strains. From March 2007 to March 2008, 35 screening swabs from nares (n=31), throat (n=3), Groin pus (n=1) were obtained from patients hospitalized at Chicoutimi hospital. Identification of S. aureus was performed using the Slidex Staph-Kit (bioMerieux Vitek, Inc., Hazelwood, Mo.) according to the manufacturer's instructions. Quality control was performed with MRSA strain ATCC 43300 and S. aureus strain ATCC 25923. In addition, S. aureus profile was determined with API Staph test strip with bacterial suspension of saline McFarland of 0.5 (bioMerieux, Durham, N.C.) according to the manufacturer's protocol. API Staph strips were held for 24 h before the results were read. A latex agglutination (SLIDEX) test detecting methicilin resistance in Staphylococci based on the production of low-affinity PBP2a, which is encoded by the mecA gene was performed on all strains. An antibiogram was also performed to confirm the identification of MRSA strains using disk diffusion test.\nAntibiotic susceptibility testing using disk diffusion method. The antimicrobial activity of different classes of antibiotics of the potential MRSA was determined by diffusion method (Kirby-Bauer) as described by NCCLS. The antibiotics tested included: penicillin (10 units), amoxicillin/clavulanic acid (20/10 μg), ciprofloxacin (5 μg), moxifloxacin (5 μg), levofloxacin (5 μg), clindamycin (15 μg), erythromycin (15 μg), cefoxitin (30 μg), linezolid (30 μg), trimethoprim/sulfomethoxazole (1.25/23.75 μg), rifampicin (5 μg), gentamicin (10 μg) and vancomycin (30 μg). The agar medium had pH 7.2 to 7.4 before inoculing potentiel MRSA. The antibiotics were maintained at 8° C. or lower −14° C. according to manufacturer's recommendations. The pure culture was inoculated on a non-selective plate for 18-24 h. Each colony was collected with a wire loop and transfered the growth to a tube containing 4 to 5 mL of a tryptic-soy broth. The inoculum density was standarized with BaSO4 using 0.5 McFarland standard. All strains were incubated at 37° C. until it achieves or exceeds the turbidity of 0.5 McFarland standard. Inoculation of the dried surface (Muller-Hinton agar plate) by streaking the swab over the entire sterile agar surface. This procedure was repeated two more times. After 15 min, the appropriate disk were applied on the surface with a sterile forceps. The inverted plates was placed in a incubator at 37° C./air/16 to 18 h or 24 h for vancomycin. The inhibition zones were measured with a millimetric ruler. Interpretation of zone sizes by references of the manufacturer. Quality control organisms used were ATCC strains number 25923.\n(§3) MRSA. Ten (10) strains of MRSA obtained as described above were tested along with an S. aureus wild type (WT) strain (ATCC25923)."}, "[2]": {"system": "S. aureus wild type strain (ATCC 25923)", "experiment": "Antibiotic assay (resazurin, Example 1), S. aureus wild type", "type": "cell-based, Staphylococcus aureus", "procedure": "as §1, §2, §3"}, "S. aureus": {"system": "S. aureus", "experiment": "Antibiotic assay (resazurin, Example 1), S. aureus strains of Table 3", "type": "cell-based, Staphylococcus aureus", "conditions": "for IC50: read-out: IC50", "text": "as §1, §2"}, "Enterococcus faecalis": {"system": "Enterococcus faecalis", "experiment": "Antibiotic assay (resazurin, Example 1), Enterococcus faecalis", "type": "cell-based", "conditions": "for IC50: read-out: IC50", "procedure": "as §1, §2\n(§4) Five additional strains were tested: Streptococcus pneumoniae, Streptococcus agalactiae, Streptococcus pyogenes, Enterococcus faecalis and Corynebacterium jeikeium."}, "Corynebacterium jeikeium": {"system": "Corynebacterium jeikeium", "experiment": "Antibiotic assay (resazurin, Example 1), Corynebacterium jeikeium", "type": "cell-based", "conditions": "Coryne. jeikeium 14139", "procedure": "as §1, §2, §4"}, "Streptococcus pyogenes": {"system": "Streptococcus pyogenes", "experiment": "Antibiotic assay (resazurin, Example 1), Streptococcus pyogenes", "type": "cell-based", "conditions": "for IC50: read-out: IC50", "procedure": "as §1, §2, §4"}, "Streptococcus agalactiae": {"system": "Streptococcus agalactiae", "experiment": "Antibiotic assay (resazurin, Example 1), Streptococcus agalactiae", "type": "cell-based", "conditions": "for IC50: read-out: IC50", "procedure": "as §1, §2, §4"}, "WS-1 cell lines": {"system": "WS-1 cell lines", "experiment": "Cytotoxicity assay on WS-1 (Example 1)", "conditions": "Table 5; WS-1, 48 h", "procedure": "Cytotoxicity assay. The cytotoxicity assay was performed in 96-well plates (BD Falcon). The WS-1 cell lines were provided by ATCC. The WS-1 was cultured in DMEM+10% fetal calf serum. The cells were plated in a volume of 100 μL at a density of 5000 cells per well and incubated at 37° C.+5% CO2 for 24 h to promote cell adhesion.\nThe plates were incubated at 37° C.+5% CO2 for 48 h. The cells were then washed with 100 μL of HBSS and 150 μL of a 2% resazurin were added to the wells.\nThe therapeutic index is the ratio between the toxicity on normal cells, in this case fibroblast, and the toxicity on bacteria."}, "S. epidermidis": {"system": "S. epidermidis", "experiment": "Antibiotic assay (resazurin, Example 1), S. epidermidis strains"}}, "note": "Like-named read-outs stand apart in the source and are kept apart here.", "data": [{"smiles": "O=C(CCc1ccccc1)c1c(O)cc(O)c(C/C=C/c2ccc(O)cc2)c1O", "note": "[Compound III]", "values": [{"measurement": "Minimum Inhibitory Concentration (MIC)", "setting": "[1]; MRSA 1", "result": "(5.5) μM"}, {"measurement": "IC50", "setting": "[1]; MRSA 1", "result": "2.4 ± 0.2", "unit": "µM"}, {"measurement": "Minimum Inhibitory Concentration (MIC)", "setting": "[1]; MRSA 2", "result": "(4.89) μM"}, {"measurement": "IC50", "setting": "[1]; MRSA 2", "result": "2.3 ± 0.2", "unit": "µM"}, {"measurement": "Minimum Inhibitory Concentration (MIC)", "setting": "[1]; MRSA 3", "result": "(5.11) μM"}, {"measurement": "IC50", "setting": "[1]; MRSA 3", "result": "2.2 ± 0.2", "unit": "µM"}, {"measurement": "Minimum Inhibitory Concentration (MIC)", "setting": "[1]; MRSA 4", "result": "(4.53) μM"}, {"measurement": "IC50", "setting": "[1]; MRSA 4", "result": "2.2 ± 0.2", "unit": "µM"}, {"measurement": "Minimum Inhibitory Concentration (MIC)", "setting": "[1]; MRSA 5", "result": "(4.27) μM"}, {"measurement": "IC50", "setting": "[1]; MRSA 5", "result": "2.3 ± 0.2", "unit": "µM"}, {"measurement": "Minimum Inhibitory Concentration (MIC)", "setting": "[1]; MRSA 6", "result": "(5.03) μM"}, {"measurement": "IC50", "setting": "[1]; MRSA 6", "result": "2.2 ± 0.2", "unit": "µM"}, {"measurement": "Minimum Inhibitory Concentration (MIC)", "setting": "[1]; MRSA 7", "result": "(4.93) μM"}, {"measurement": "IC50", "setting": "[1]; MRSA 7", "result": "2.4 ± 0.2", "unit": "µM"}, {"measurement": "Minimum Inhibitory Concentration (MIC)", "setting": "[1]; MRSA 8", "result": "(4.98) μM"}, {"measurement": "IC50", "setting": "[1]; MRSA 8", "result": "2.2 ± 0.2", "unit": "µM"}, {"measurement": "Minimum Inhibitory Concentration (MIC)", "setting": "[1]; MRSA 9", "result": "(5.77) μM"}, {"measurement": "IC50", "setting": "[1]; MRSA 9", "result": "2.3 ± 0.2", "unit": "µM"}, {"measurement": "Minimum Inhibitory Concentration (MIC)", "setting": "[1]; MRSA 10", "result": "(5.31) μM"}, {"measurement": "IC50", "setting": "[1]; MRSA 10", "result": "2.8 ± 0.2", "unit": "µM"}, {"measurement": "Minimum Inhibitory Concentration (MIC)", "setting": "[2]; S. aureus WT (ATCC 25923)", "result": "(5.81) μM"}, {"measurement": "IC50", "setting": "[2]; S. aureus WT (ATCC 25923), read-out: IC50", "result": "2.2 ± 0.6", "unit": "µM"}, {"measurement": "IC50", "setting": "[2]; Table 5, same values as IC50 of Table 2, read-out: S. aureus WT ATCC 25923 (toxicity on bacteria)", "result": "2.2 ± 0.6", "unit": "µM"}, {"measurement": "Minimum Inhibitory Concentration (MIC)", "setting": "S. aureus; S. aureus 14094", "result": "(5.5) μM"}, {"measurement": "IC50", "setting": "S. aureus; S. aureus 14094", "result": "2.4 ± 0.2", "unit": "µM"}, {"measurement": "Minimum Inhibitory Concentration (MIC)", "setting": "S. aureus; S. aureus 14108", "result": "(5.25) μM"}, {"measurement": "IC50", "setting": "S. aureus; S. aureus 14108", "result": "2.7 ± 0.2", "unit": "µM"}, {"measurement": "Minimum Inhibitory Concentration (MIC)", "setting": "S. aureus; S. aureus 14118", "result": "(3.46) μM"}, {"measurement": "IC50", "setting": "S. aureus; S. aureus 14118", "result": "2.3 ± 0.1", "unit": "µM"}, {"measurement": "Minimum Inhibitory Concentration (MIC)", "setting": "S. aureus; S. aureus 14154", "result": "(4.95) μM"}, {"measurement": "IC50", "setting": "S. aureus; S. aureus 14154", "result": "1.5 ± 0.1", "unit": "µM"}, {"measurement": "Minimum Inhibitory Concentration (MIC)", "setting": "Enterococcus faecalis; Ent. Faecalis 14078", "result": "(>200) μM"}, {"measurement": "IC50", "setting": "Enterococcus faecalis; Ent. Faecalis 14078", "result": "> 200", "unit": "µM"}, {"measurement": "Minimum Inhibitory Concentration (MIC)", "setting": "Enterococcus faecalis; Ent. Faecalis 14115", "result": "(>200) μM"}, {"measurement": "IC50", "setting": "Enterococcus faecalis; Ent. Faecalis 14115", "result": "> 200", "unit": "µM"}, {"measurement": "activity against Enterococcus faecalis", "setting": "Enterococcus faecalis; in words", "result": "No activity"}, {"measurement": "Minimum Inhibitory Concentration (MIC)", "setting": "Corynebacterium jeikeium", "result": "(200) μM"}, {"measurement": "IC50", "setting": "Corynebacterium jeikeium; read-out: IC50", "result": "9 ± 2", "unit": "µM"}, {"measurement": "Minimum Inhibitory Concentration (MIC)", "setting": "Streptococcus pyogenes; Strep. pyogenes 14149", "result": "(>200) μM"}, {"measurement": "IC50", "setting": "Streptococcus pyogenes; Strep. pyogenes 14149", "result": "> 200", "unit": "µM"}, {"measurement": "Minimum Inhibitory Concentration (MIC)", "setting": "Streptococcus pyogenes; Strep. pyogenes 14152", "result": "(>200) μM"}, {"measurement": "IC50", "setting": "Streptococcus pyogenes; Strep. pyogenes 14152", "result": "174 ± 10", "unit": "µM"}, {"measurement": "activity against Streptococcus pyogenes strain 14152", "setting": "Streptococcus pyogenes; in words", "result": "active"}, {"measurement": "Minimum Inhibitory Concentration (MIC)", "setting": "Streptococcus agalactiae; Strep. agalactiae 14150", "result": "(>200) μM"}, {"measurement": "IC50", "setting": "Streptococcus agalactiae; Strep. agalactiae 14150", "result": "154 ± 2", "unit": "µM"}, {"measurement": "Minimum Inhibitory Concentration (MIC)", "setting": "Streptococcus agalactiae; Strep. agalactiae 14151", "result": "(>200) μM"}, {"measurement": "IC50", "setting": "Streptococcus agalactiae; Strep. agalactiae 14151", "result": "> 200", "unit": "µM"}, {"measurement": "Minimum Inhibitory Concentration (MIC)", "setting": "Streptococcus agalactiae; Strep. agalactiae 14153", "result": "(>200) μM"}, {"measurement": "IC50", "setting": "Streptococcus agalactiae; Strep. agalactiae 14153", "result": "> 200", "unit": "µM"}, {"measurement": "activity against Streptococcus agalactiae strain 14150", "setting": "Streptococcus agalactiae; in words", "result": "active"}, {"measurement": "WS-1 (toxicity on normal cells, fibroblast)", "setting": "WS-1 cell lines", "result": "20 ± 3"}, {"measurement": "IC50", "setting": "S. epidermidis; S. epidermidis 14069", "result": "4.5 ± 0.3", "unit": "µM"}, {"measurement": "Minimum Inhibitory Concentration (MIC)", "setting": "S. epidermidis; S. epidermidis 14069", "result": "(10.9) μM"}, {"measurement": "IC50", "setting": "S. epidermidis; S. epidermidis 14085", "result": "3.6 ± 0.4", "unit": "µM"}, {"measurement": "Minimum Inhibitory Concentration (MIC)", "setting": "S. epidermidis; S. epidermidis 14085", "result": "(11.6) μM"}, {"measurement": "IC50", "setting": "S. epidermidis; S. epidermidis 14093", "result": "6.3 ± 0.6", "unit": "µM"}, {"measurement": "Minimum Inhibitory Concentration (MIC)", "setting": "S. epidermidis; S. epidermidis 14093", "result": "(8.43) μM"}, {"measurement": "IC50", "setting": "S. epidermidis; S. epidermidis 14134", "result": "3 ± 0.6", "unit": "µM"}, {"measurement": "Minimum Inhibitory Concentration (MIC)", "setting": "S. epidermidis; S. epidermidis 14134", "result": "(14.7) μM"}, {"measurement": "IC50", "setting": "S. epidermidis; S. epidermidis 14143", "result": "4.41 ± 0.04", "unit": "µM"}, {"measurement": "Minimum Inhibitory Concentration (MIC)", "setting": "S. epidermidis; S. epidermidis 14143", "result": "(9) μM"}, {"measurement": "activity on S. epidermidis compared with ciprofloxacin", "setting": "S. epidermidis; in words", "result": "more active than ciprofloxacin"}]}]}
